We go through 25 compounds from patent publication US11124538B2, “Neuroactive steroids, compositions, and uses thereof” (Sage Therapeutics, Inc., priority 2015, dated 2021).

This assay has as its target [35S]-TBPS binding to rat brain cortical membranes in the presence of 5 μM GABA (GABA receptor complex). The experiment in a line: Steroid inhibition of [35S]-TBPS binding (radioligand displacement). The note with it: 3 nM [35S]-TBPS. The protocol:
TBPS binding assays using rat brain cortical membranes in the presence of 5 μM GABA has been described (Gee et al, J. Pharmacol. Exp. Ther. 1987, 241, 346-353; Hawkinson et al, Mol. Pharmacol. 1994, 46, 977-985; Lewin, A. H et al., Mol. Pharmacol. 1989, 35, 189-194).
Briefly, cortices are rapidly removed following decapitation of carbon dioxide-anesthetized Sprague-Dawley rats (200-250 g). The cortices are homogenized in 10 volumes of ice-cold 0.32 M sucrose using a glass/teflon homogenizer and centrifuged at 1500×g for 10 min at 4° C. The resultant supernatants are centrifuged at 10,000×g for 20 min at 4° C. to obtain the P2 pellets. The P2 pellets are resuspended in 200 mM NaCl/50 mM Na—K phosphate pH 7.4 buffer and centrifuged at 10,000×g for 10 min at 4° C. This washing procedure is repeated twice and the pellets are resuspended in 10 volumes of buffer. Aliquots (100 μL) of the membrane suspensions are incubated with 3 nM [^35S]-TBPS and 5 μL aliquots of test drug dissolved in dimethyl sulfoxide (DMSO) (final 0.5%) in the presence of 5 μM GABA. The incubation is brought to a final volume of 1.0 mL with buffer. […] Following a 90 min incubation at room temp, the assays are terminated by filtration through glass fiber filters (Schleicher and Schuell No. 32) using a cell harvester (Brandel) and rinsed three times with ice-cold buffer. Filter bound radioactivity is measured by liquid scintillation spectrometry. Non-linear curve fitting of the overall data for each drug averaged for each concentration is done using Prism (GraphPad). […] The concentration of test compound producing 50% inhibition (IC50) of specific binding and the maximal extent of inhibition (Imax) are determined for the individual experiments with the same model used for the overall data and then the means±SEM.s of the individual experiments are calculated.
Various compounds are or can be screened to determine their potential as modulators of [^35S]-TBPS binding in vitro. These assays are or can be performed in accordance with the above discussed procedures.
As to `COC[C@]12CC[C@@](C)(O)C[C@H]1CC[C@H]1[C@@H]3CC[C@H](C(=O)Cn4nnc5ccc(OC)cc54)[C@@]3(C)CC[C@@H]12` [Compound 25], the IC50 is less than 10 nM.

On to `CC(C)OC[C@]12CC[C@@](C)(O)C[C@H]1CC[C@H]1[C@@H]3CC[C@H](C(=O)Cn4nnc5c(F)c(F)ccc54)[C@@]3(C)CC[C@@H]12` [Compound 68], for which the IC50 is less than 10 nM.

For `COC[C@]12CC[C@@](C)(O)C[C@H]1CC[C@H]1[C@@H]3CC[C@H](C(=O)Cn4cc5ccncc5n4)[C@@]3(C)CC[C@@H]12` [Compound 46], the 50% inhibitory concentration (IC50) lay in the range of 10 to 50 nM.

Take `COC[C@]12CC[C@@](C)(O)C[C@@H]1CC[C@H]1[C@@H]3CC[C@H](C(=O)Cn4ncc(C(=O)O)n4)[C@@]3(C)CC[C@@H]12` [Compound 81]: the half-inhibitory concentration (IC50) was more than 500 nM.

As for `COC[C@]12CC[C@@](C)(O)C[C@H]1CC[C@H]1[C@@H]3CC[C@H](C(=O)Cn4ncc5ccc(F)cc54)[C@@]3(C)CC[C@@H]12` [Compound 15], the IC50 was less than 10 nM.

Take `COC[C@]12CC[C@@](C)(O)C[C@H]1CC[C@H]1[C@@H]3CC[C@H](C(=O)Cn4nc5cccc(OC)c5n4)[C@@]3(C)CC[C@@H]12` [Compound 30]: the IC50 is less than 10 nM.

In the case of `CC(C)OC[C@]12CC[C@@](C)(O)C[C@H]1CC[C@H]1[C@@H]3CC[C@H](C(=O)Cn4nc5ccc(F)c(F)c5n4)[C@@]3(C)CC[C@@H]12` [Compound 70], the concentration for half-maximal inhibition (IC50) was less than 10 nM.

As for `COC[C@]12CC[C@@](C)(O)C[C@H]1CC[C@H]1[C@@H]3CC[C@H](C(=O)Cn4nnc5c(OC)cccc54)[C@@]3(C)CC[C@@H]12` [Compound 28], the IC50 was less than 10 nM.

As to `COC[C@]12CC[C@@](C)(O)C[C@@H]1CC[C@H]1[C@@H]3CC[C@H](C(=O)Cn4ncc(CO)n4)[C@@]3(C)CC[C@@H]12` [Compound 85], the IC50 was more than 500 nM.

As to `COC[C@]12CC[C@@](C)(O)C[C@@H]1CC[C@H]1[C@@H]3CC[C@H](C(=O)Cn4cc(C(=O)O)nn4)[C@@]3(C)CC[C@@H]12` [Compound 82], the IC50 was more than 500 nM.

With `COC[C@]12CC[C@@](C)(O)C[C@@H]1CC[C@H]1[C@@H]3CC[C@H](C(=O)Cn4cc([S+](C)[O-])cn4)[C@@]3(C)CC[C@@H]12` (stereo partly shown) [Compound 35], the concentration for half-maximal inhibition (IC50) is more than 500 nM.

Take `COC[C@]12CC[C@@](C)(O)C[C@H]1CC[C@H]1[C@@H]3CC[C@H](C(=O)Cn4nnc5ccccc54)[C@@]3(C)CC[C@@H]12` [Compound 18]: the half-maximal inhibitory concentration (IC50) was less than 10 nM.

Take `COC[C@]12CC[C@@](C)(O)C[C@H]1CC[C@H]1[C@@H]3CC[C@H](C(=O)Cn4nc5ccc(OC)cc5n4)[C@@]3(C)CC[C@@H]12` [Compound 27]: the 50% inhibitory concentration (IC50) is less than 10 nM.

For the compound `COC[C@]12CC[C@@](C)(O)C[C@H]1CC[C@H]1[C@@H]3CC[C@H](C(=O)Cn4nnc5cc(OC)ccc54)[C@@]3(C)CC[C@@H]12` [Compound 26], the IC50 is less than 10 nM.

For the compound `COC[C@]12CC[C@@](C)(O)C[C@H]1CC[C@H]1[C@@H]3CC[C@H](C(=O)Cn4cc5ccc(F)cc5n4)[C@@]3(C)CC[C@@H]12` [Compound 14], the IC50 is less than 10 nM.

In the case of `COC[C@]12CC[C@@](C)(O)C[C@@H]1CC[C@H]1[C@@H]3CC[C@H](C(=O)Cn4cc(SC)cn4)[C@@]3(C)CC[C@@H]12` [Compound 34], the half-maximal inhibitory concentration (IC50) lay in the range of 10 to 50 nM.

Regarding `COC[C@]12CC[C@@](C)(O)C[C@H]1CC[C@H]1[C@@H]3CC[C@H](C(=O)Cn4nc5cc(Cl)cnc5n4)[C@@]3(C)CC[C@@H]12` [Compound 13], the IC50 is less than 10 nM.

Consider `CC(C)OC[C@]12CC[C@@](C)(O)C[C@H]1CC[C@H]1[C@@H]3CC[C@H](C(=O)Cn4nnc5ccc(F)c(F)c54)[C@@]3(C)CC[C@@H]12` [Compound 69], for which the IC50 was less than 10 nM.

Regarding `COC[C@]12CC[C@@](C)(O)C[C@H]1CC[C@H]1[C@@H]3CC[C@H](C(=O)Cn4cc(SC)cn4)[C@@]3(C)CC[C@@H]12` [Compound 21], the IC50 was less than 10 nM.

With `COC[C@]12CC[C@@](C)(O)C[C@H]1CC[C@H]1[C@@H]3CC[C@H](C(=O)Cn4nnc5cccc(OC)c54)[C@@]3(C)CC[C@@H]12` [Compound 29], the half-maximal inhibitory concentration (IC50) was less than 10 nM.

`COC[C@]12CC[C@@](C)(O)C[C@H]1CC[C@H]1[C@@H]3CC[C@H](C(=O)Cn4nc5cc(F)cc(F)c5n4)[C@@]3(C)CC[C@@H]12` [Compound 10]: the IC50 is less than 10 nM.

Consider `COC[C@]12CC[C@@](C)(O)C[C@H]1CC[C@H]1[C@@H]3CC[C@H](C(=O)Cn4nc5ccc(Cl)c(F)c5n4)[C@@]3(C)CC[C@@H]12` [Compound 24], for which the half-inhibitory concentration (IC50) is less than 10 nM.

For the compound `COC[C@]12CC[C@@](C)(O)C[C@@H]1CC[C@H]1[C@@H]3CC[C@H](C(=O)Cn4nnc5c(F)c(Cl)ccc54)[C@@]3(C)CC[C@@H]12` [Compound 51], the half-maximal inhibitory concentration (IC50) was less than 10 nM.

Turning to `COC[C@]12CC[C@@](C)(O)C[C@H]1CC[C@H]1[C@@H]3CC[C@H](C(=O)Cn4nnc5cc(Cl)cnc54)[C@@]3(C)CC[C@@H]12` [Compound 12], the 50% inhibitory concentration (IC50) was less than 10 nM.

Turning to `CC(C)OC[C@]12CC[C@@](C)(O)C[C@H]1CC[C@H]1[C@@H]3CC[C@H](C(=O)Cn4ncnn4)[C@@]3(C)CC[C@@H]12` [Compound 72], the IC50 was less than 10 nM.
